Measurements from PMC9130538, “Amino acids in transmembrane helix 1 confer major functional differences between human and mouse orthologs of the polyspecific membrane transporter OCT1” (The Journal of Biological Chemistry, 2022).
“Also recorded” adds a separate entry of the source. Read-outs that look alike come from different tables or passages of the source.

Experiments:
human OCT1 [1] = target: T1, human OCT1 (Homo sapiens, UniProt O15245); assay: Cellular uptake by HEK293 cells overexpressing human OCT1 (wildtype); conditions: for transport by human OCT1 (saturability): concentration-dependent uptake, stably transfected HEK293, 2 min
T1 sequence (O15245 1-554): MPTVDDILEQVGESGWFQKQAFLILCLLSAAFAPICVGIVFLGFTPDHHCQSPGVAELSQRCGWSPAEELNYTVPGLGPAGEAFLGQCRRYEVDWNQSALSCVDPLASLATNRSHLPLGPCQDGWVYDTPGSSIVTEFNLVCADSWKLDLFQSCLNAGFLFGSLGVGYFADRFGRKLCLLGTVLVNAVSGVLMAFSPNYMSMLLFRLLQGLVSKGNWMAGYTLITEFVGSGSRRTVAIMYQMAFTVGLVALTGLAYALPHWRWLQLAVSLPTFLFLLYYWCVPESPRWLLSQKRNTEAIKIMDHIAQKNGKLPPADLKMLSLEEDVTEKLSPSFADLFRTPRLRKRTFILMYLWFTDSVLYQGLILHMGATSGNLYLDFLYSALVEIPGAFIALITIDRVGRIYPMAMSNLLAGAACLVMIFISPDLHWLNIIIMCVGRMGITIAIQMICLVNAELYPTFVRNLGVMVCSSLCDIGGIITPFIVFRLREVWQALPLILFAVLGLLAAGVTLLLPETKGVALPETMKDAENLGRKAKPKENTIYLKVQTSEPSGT
Experimental: (§1) Generation and characterization of these cell lines has been described in detail before ([34], [48], [49]). Cells were cultured in Dulbecco’s Modified Eagle’s Medium supplemented with 10% fetal bovine serum, 100 U/ml penicillin, and 100 μg/ml streptomycin at 37 °C and 5% CO2 and were passaged twice a week.
(§2) At 48 h prior to the experiment, 6 × 10^5 cells were seeded per well in 12-well plates. When using transiently transfected cells, 5 × 10^5 T-REx-293 cells (Life Technologies) were seeded per well in 12-well plates 72 h prior to the experiment, and they were transfected 24 h later as described previously. Twelve-well plates were precoated with poly-D-lysine.
(§3) Cellular uptake experiments were performed at 37 °C and pH 7.4 using HBSS supplemented with 10 mM Hepes (in the following referred to as HBSS+). Cells were washed with 1 ml prewarmed (37 °C) HBSS+, and the uptake was initiated by adding 400 μl of prewarmed HBSS+ containing the substrate. Uptake was allowed for exactly 2 min and afterward stopped by adding 2 ml ice-cold HBSS+. Cells were washed twice with 2 ml ice-cold HBSS+ and lysed with 80% acetonitrile supplemented with internal standard, 0.1 N NaOH/0.1% SDS, or radioimmunoprecipitation buffer for LC–MS/MS, liquid scintillation counting, or fluorescence spectroscopy detection, respectively. Intracellular substrate concentrations were measured as described in the following and were then normalized to the amount of total protein in the samples as measured using the bicinchoninic acid assay ([51]).
(§4) For LC–MS/MS quantification of intracellular substrate concentrations, the cell lysate was centrifuged at 16,000g for 15 min, and 350 μl of supernatant was evaporated to dryness under nitrogen flow at 40 °C. The sample was reconstituted with 200 μl 0.1% formic acid, and between 2 and 30 μl were injected into the LC–MS/MS system (Table S1).
(§5) An API4000 QTRAP tandem mass spectrometer with ESI interface (AB SCIEX) was used, coupled to a Shimadzu Nexera X2 UHPLC system with LC 30AD pumps and SiL 30AC autosampler (Shimadzu).
(§6) Intracellular concentrations of radioactively labeled substrates MPP^+ and TEA^+ were quantified using liquid scintillation counting. To this end, 400 μl cell lysate was transferred into a 20 ml scintillation vial, 9 ml Aquasafe 500 Plus liquid scintillator (both Zinsser Analytics) was added, and the sample was measured in the Scintillation Counter LS6500 (Beckman Coulter).
(§7) For both analyses, SPSS Statistics, version 28 (SPSS, Inc, IBM) was used.

human OCT1 [2] = target: T1, human OCT1; design: expressed in transfected cells; method as in PMID 33037045, PMID 34040533; conditions: HEK293 stably transfected, 2 min, data previously published, ref [34], [35], cited from earlier work; for Km: read-out: KM ± SD, hOCT1
mouse Oct1 [3] = target: T2, mouse Oct1 (Mus musculus, UniProt O08966); design: expressed in transfected cells; method as in PMID 33037045, PMID 34040533; conditions: HEK293 stably transfected, 2 min, data previously published, ref [34], [35], cited from earlier work; for Km: read-out: KM ± SD, mOct1
T2 sequence (O08966 1-556): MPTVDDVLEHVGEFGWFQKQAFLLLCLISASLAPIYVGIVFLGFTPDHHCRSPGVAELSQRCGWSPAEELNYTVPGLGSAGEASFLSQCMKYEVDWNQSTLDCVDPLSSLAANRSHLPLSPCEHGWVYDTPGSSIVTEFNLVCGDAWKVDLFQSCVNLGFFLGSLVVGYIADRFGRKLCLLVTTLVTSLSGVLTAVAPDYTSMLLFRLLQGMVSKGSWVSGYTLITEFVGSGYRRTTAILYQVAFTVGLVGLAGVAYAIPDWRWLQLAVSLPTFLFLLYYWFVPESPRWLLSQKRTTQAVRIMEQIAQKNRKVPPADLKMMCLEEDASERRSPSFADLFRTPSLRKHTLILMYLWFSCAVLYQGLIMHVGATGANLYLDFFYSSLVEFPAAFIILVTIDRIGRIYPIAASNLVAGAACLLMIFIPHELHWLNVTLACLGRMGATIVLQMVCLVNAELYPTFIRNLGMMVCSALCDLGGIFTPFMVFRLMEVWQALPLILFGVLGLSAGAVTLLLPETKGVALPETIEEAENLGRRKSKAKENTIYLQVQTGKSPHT

mouse Oct1 [4] = target: T2, mouse Oct1; assay: Cellular uptake by HEK293 cells overexpressing mouse Oct1 (wildtype)
Experimental: as §1, §2, §3, §4, §5, §6, §7

[5] = human versus mouse OCT1, stably transfected HEK293
[6] = ASP^+ by fluorescence spectroscopy, HEK293 stably transfected, 2 min
[7] = read-out: KM ± SD, hOCT1, HEK293 stably transfected, 2 min uptake, 37 °C, pH 7.4
[8] = HEK293 stably transfected, 2 min uptake, 37 °C, pH 7.4, OCT1-mediated uptake

## NC[C@H](O)c1ccc(O)c(O)c1 [Noradrenaline]
Human OCT1 [1]
  transport by human OCT1 (saturability): lacked any saturable transport

## CC(CCc1ccc(O)cc1)NCC(O)c1ccc(O)cc1 (centres unmarked) [Ractopamine]
Human OCT1 [1]; [5]
  fold higher affinity (KM) of human than of mouse OCT1: comparable between human and mouse OCT1

## CN(C)C(=N)N=C(N)N [Metformin]
Human OCT1 [2]
  vmax ± SD, hOCT1: 14,703 ± 4346 pmol × min^−1 × mg protein^−1
  Km: 2.2 ± 1.15 mM
Mouse Oct1 [3]
  vmax ± SD, mOct1: 17,496 ± 7097 pmol × min^−1 × mg protein^−1
  Km: 491 ± 155 µM

## CN(C)c1ccc(C=Cc2cc[n+](C)cc2)cc1 [ASP^+, 4-(4-(dimethylamino)styryl)-N-methylpyridinium]
Human OCT1 [1]; [6]
  vmax ± SD, hOCT1: 361,671 ± 2974 RFU × min^−1 × mg protein^−1
Human OCT1 [1]; [7]
  Km: 63 ± 15.3 µM
Mouse Oct1 [4]; [6]
  vmax ± SD, mOct1: 53,802 ± 7155 RFU × min^−1 × mg protein^−1
Mouse Oct1 [4]; read-out: KM ± SD, mOct1, HEK293 stably transfected, 2 min uptake, 37 °C, pH 7.4
  Km: 12.8 ± 2.97 µM

## CC(C)C(=O)O[C@H](CC(=O)[O-])C[N+](C)(C)C [IBC, isobutyryl-L-carnitine]
Human OCT1 [1]
  transport by human OCT1 (saturability): not transported at all
Human OCT1 [1]; listed as isobutyryl-L-carnitine (IBC)
  transport by human OCT1 (saturability): lacked any saturable transport
Mouse Oct1 [3]
  vmax ± SD, mOct1: 8366 ± 1705 pmol × min^−1 × mg protein^−1
  Km: 1380 ± 356 µM

## C[N@+]1(CC2CC2)CC[C@]23c4c5ccc(O)c4O[C@H]2C(=O)CC[C@@]3(O)[C@H]1C5 [Methylnaltrexone]
Mouse Oct1 [4]; [8]
  vmax ± SD, mOct1: 414 ± 130 pmol × min^−1 × mg protein^−1

## CC[N+](CC)(CC)CC [TEA^+, tetraethylammonium]
Human OCT1 [1]
  CLint ± SD, hOCT1: 6.31 ± 2.45 μl × min^−1 × mg protein^−1
Human OCT1 [1]; pH 7.4
  Km: 749 ± 438 µM
  vmax ± SD, hOCT1: 4207 ± 1511 pmol × min^−1 × mg protein^−1
Mouse Oct1 [4]
  CLint ± SD, mOct1: 27.6 ± 9.72 μl × min^−1 × mg protein^−1
Mouse Oct1 [4]; pH 7.4
  Km: 305 ± 141 µM
  vmax ± SD, mOct1: 7764 ± 2883 pmol × min^−1 × mg protein^−1

## COc1ccc(CC(C)NCC(O)c2ccc(O)c(NC=O)c2)cc1 (centres unmarked) [Formoterol]
Human OCT1 [1]; [8]
  vmax ± SD, hOCT1: 434 ± 111 pmol × min^−1 × mg protein^−1
Mouse Oct1 [4]; [8]
  vmax ± SD, mOct1: 1458 ± 317 pmol × min^−1 × mg protein^−1

## C[N+](C)(C)CCO [Choline]
Human OCT1 [1]
  transport by human OCT1 (saturability): lacked any saturable transport; also recorded: not transported at all

## C[n+]1ccc(-c2ccccc2)cc1 [MPP^+, 1-methyl-4-phenylpyridinium]
Human OCT1 [1]; [8]
  vmax ± SD, hOCT1: 3112 ± 419 pmol × min^−1 × mg protein^−1
Human OCT1 [1]; [7]
  Km: 71.1 ± 17.3 µM
Mouse Oct1 [4]
  CLint ± SD, mOct1: 80.8 ± 12.1 μl × min^−1 × mg protein^−1
Mouse Oct1 [4]; pH 7.4
  Km: 24.4 ± 7.95 µM
  vmax ± SD, mOct1: 1910 ± 450 pmol × min^−1 × mg protein^−1

## CC(NCCc1ccc(O)cc1)C(O)c1ccc(O)cc1 (centres unmarked) [Ritodrine]
Human OCT1 [1]; [5]
  fold higher affinity (KM) of human than of mouse OCT1: ~10 fold

## CC(C)NCC(O)c1cc(O)cc(O)c1 (centres unmarked) [Orciprenaline]
Human OCT1 [1]; [5]
  fold lower affinity (KM) of human OCT1 than mouse Oct1 (higher affinity of mouse Oct1): more than sixfold higher affinity of mouse Oct1

## [H]/N=C(/N)N/C(=N/[H])NCCc1ccccc1 [Phenformin]
Human OCT1 [1]; human, pH 7.4
  CLint ± SD, hOCT1: 106 ± 22.8 μl × min^−1 × mg protein^−1
Mouse Oct1 [4]; mouse, pH 7.4
  CLint ± SD, mOct1: 143 ± 26.2 μl × min^−1 × mg protein^−1

## C[N+]1(C)[C@@H]2C[C@@H](OC(=O)C(O)(c3cccs3)c3cccs3)C[C@H]1[C@@H]1O[C@@H]12 [Tiotropium]
Human OCT1 [1]; human, pH 7.4
  Km: 7.82 ± 1.77 µM
Human OCT1 [1]; pH 7.4
  vmax ± SD, hOCT1: 836 ± 322 pmol × min^−1 × mg protein^−1
Mouse Oct1 [4]; mouse, pH 7.4
  Km: 1.47 ± 0.12 µM
Mouse Oct1 [4]; pH 7.4
  vmax ± SD, mOct1: 285 ± 87.1 pmol × min^−1 × mg protein^−1

## Cc1ncc(C[n+]2csc(CCO)c2C)c(N)n1 [Thiamine]
Human OCT1 [2]
  vmax ± SD, hOCT1: 8261 ± 3720 pmol × min^−1 × mg protein^−1
  Km: 1.06 ± 0.341 mM
Mouse Oct1 [3]
  vmax ± SD, mOct1: 3712 ± 1031 pmol × min^−1 × mg protein^−1
  Km: 143 ± 96.3 µM
